ChEMBL document CHEMBL5727535, “NK-3 receptor selective antagonist compounds, pharmaceutical composition and methods for use in NK-3 receptors mediated disorders” (2020)

Molecular target: T1, Neuromedin-K receptor (Homo sapiens, UniProt P29371)
T1 sequence (P29371 whole entry): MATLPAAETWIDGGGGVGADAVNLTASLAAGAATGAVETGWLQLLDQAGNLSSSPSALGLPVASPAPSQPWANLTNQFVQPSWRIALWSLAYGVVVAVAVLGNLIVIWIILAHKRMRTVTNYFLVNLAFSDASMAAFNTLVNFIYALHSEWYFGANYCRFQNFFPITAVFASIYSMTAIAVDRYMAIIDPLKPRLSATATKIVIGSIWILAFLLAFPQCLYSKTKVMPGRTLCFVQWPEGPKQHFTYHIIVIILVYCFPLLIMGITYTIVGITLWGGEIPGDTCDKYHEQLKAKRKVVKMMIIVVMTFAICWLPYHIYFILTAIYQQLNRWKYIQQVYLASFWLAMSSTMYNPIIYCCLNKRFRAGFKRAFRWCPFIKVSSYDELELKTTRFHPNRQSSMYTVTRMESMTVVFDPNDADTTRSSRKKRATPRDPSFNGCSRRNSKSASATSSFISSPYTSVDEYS
Assay: 3H-SB222200 Binding Competition Assay with Human NK-3 Receptor: The ability of the compounds of the invention to inhibit the binding of the NK-3 receptor selective antagonist SB222200 was assessed by an in vitro radioligand binding assay. Membranes were prepared from Chinese hamster ovary recombinant cells which express the human NK3 receptor. The membranes were incubated with 5 nM 3H-SB222200_(ARC) in a HEPES 25 mM/NaCl 0.1M/CaCl2 1 mM/MgCl2 5 Mm/BSA 0.5%/Saponin 10 μg/ml buffer at pH 7.4 and various concentrations of the compounds of the invention. The amount of tritiated SB222200 bound to the receptor was determined after filtration by the quantification of membrane associated radioactivity using the TopCount-NXT reader (Packard). Competition curves were obtained for compounds of the invention and the concentrations of compounds which displaced 50% of bound radioligand (IC50) were determined and then apparent inhibition constant Ki values were calculated by the following equation: Ki=IC50/(1+[L]/KD) where [L] is the concentration of free radioligand and KD is its dissociation constant at the receptor, derived from saturation binding experiments (Cheng and Prusoff, 1973).

Structure (SMILES)	Ki [nM]
C[C@@H]1c2nnc(-c3csc(-c4ccc(Cl)cc4)n3)n2CCN1C(=O)c1ccc(F)cc1	< 500
O=C(c1ccc(F)cc1)N1CCn2c(nnc2-c2csc(-c3ccc(Cl)cc3Cl)n2)C1	< 500
O=C(c1ccc(F)cc1)N1CCn2c(nnc2-c2csc(-c3ccccc3Cl)n2)C1	< 500
O=C(c1ccc(F)cc1)N1CCn2c(nnc2-c2csc(-c3cc(Cl)cc(Cl)c3)n2)C1	< 500
O=C(c1ccc(-c2ccccc2)cc1)N1CCn2c(nnc2-c2csc(-c3ccccc3Cl)n2)C1	< 500
O=C(c1ccc(-c2cccs2)cc1)N1CCn2c(nnc2-c2csc(Cc3ccc(Cl)cc3)n2)C1	< 500
O=C(c1ccc(F)cc1)N1CCn2c(nnc2-c2ccc(Cl)cn2)C1	< 500
O=C(c1ccc(-c2cccs2)cc1)N1CCn2c(nnc2-c2csc(-c3ccccc3Cl)n2)C1	< 500
O=C(c1ccc(-c2cccs2)cc1)N1CCn2c(nnc2-c2csc(-c3ccc(Br)cc3)n2)C1	< 500
O=C(c1ccc(F)cc1)N1CCn2c(nnc2-c2csc(-c3cccc(Cl)c3Cl)n2)C1	< 500
O=C(c1ccc(F)cc1)N1CCn2c(nnc2-c2csc(-c3ccc(Cl)cc3)n2)C1	< 500
O=C(c1ccc(F)cc1)N1CCn2c(nnc2-c2csc(-c3cccc(Cl)c3)n2)C1	< 500
O=C(c1ccc(F)cc1)N1CCn2c(nnc2-c2csc(-c3ccc(Br)cc3)n2)C1	< 500
Cn1nc(C(=O)N2CCn3c(nnc3-c3ccccn3)C2)cc1-c1ccc(Cl)cc1	> 5000
CC1c2nnc(-c3csc(-c4ccc(F)cc4)n3)n2CCN1C(=O)c1ccc(Cl)c(F)c1 (stereo not drawn)	< 500
CC1c2nnc(-c3csc(-c4ccccc4Cl)n3)n2CCN1C(=O)c1ccc(F)cc1 (stereo not drawn)	< 500
CC1c2nnc(-c3csc(-c4ccc(F)cc4)n3)n2CCN1C(=O)c1ccc(Cl)c(Cl)c1 (stereo not drawn)	< 500
CC1c2nnc(-c3csc(-c4ccc(F)cc4)n3)n2CCN1C(=O)c1ccc(F)c(Cl)c1 (stereo not drawn)	< 500
